Measurements published in patent US20260041695A1, “COMBINATION THERAPIES FOR TREATMENT OF BREAST CANCER” (Genentech, Inc., priority 2019, published 2026).
Like-named read-outs stand apart in the source and are kept apart here. Blank lines part the entries; values can stand above or below the molecule they belong to.

Assays:
[1] = Phase I single-agent GDC-0077: pharmacokinetics; format: in vivo, human
Procedure: To evaluate single dose pharmacokinetics (PK), frequent blood sampling was performed up to 48 hours after the initial dose at Cycle 1 Day 1. Once daily dosing was initiated from Cycle 1 Day 8 and blood sampling to evaluate PK at steady state was conducted at Cycle 1 Day 15.

[2] = system: locally advanced or metastatic PIK3CA-mutant solid tumors; assay: Phase I single-agent GDC-0077: clinical activity (RECIST v1.1); format: in vivo, human
Procedure: Tumor assessments were performed by RECIST v1.1 at screening and every 8 weeks to assess preliminary anti-tumor activity.

PI3K pathway [3] = assay: Phase I single-agent GDC-0077: pharmacodynamics; format: in vivo, human
Procedure: Pharmacodynamic activity was assessed pre- and on-study (after 2 weeks of daily GDC-0077 treatment) with FDG-PET scans, in tumor biopsies via immunohistochemistry (IHC), and in ctDNA samples (by FoundationACT).

[4] = Phase Ib GDC-0077 + letrozole with or without palbociclib: pharmacokinetics; format: in vivo, human
PI3K pathway [5] = assay: Phase Ib GDC-0077 + letrozole with or without palbociclib: pharmacodynamics; format: in vivo, human
Procedure: Pharmacodynamic activity was assessed pre- and on-study (after 2 weeks of daily GDC-0077 treatment), in tumor biopsies via immunohistochemistry (IHC), and in ctDNA samples (by FoundationACT).

[6] = Phase I/Ib GDC-0077 + fulvestrant: pharmacokinetics and food effect; format: in vivo, human
Procedure: Safety (NCI-CTCAE v4), PK, and preliminary antitumor activity (clinical benefit rate [CBR]: RECIST v1.1 stable disease for ≥24 weeks, partial response [PR], or complete response) were assessed. The effect of a standard high-fat meal on the PK of G was evaluated after a single dose and at steady state. Relevant signaling and pharmacodynamic (PD) biomarkers were assessed using circulating tumor (ct) DNA samples.

[7] = Phase I/Ib inavolisib + palbociclib + fulvestrant: pharmacokinetics; design: species or system human; conditions: in vivo
[8] = target: Class I PI3K alpha isoform (Homo sapiens, UniProt P42336); conditions: versus PI3K alpha; cited from earlier work
Sequence of Class I PI3K alpha isoform (P42336 whole entry, canonical isoform): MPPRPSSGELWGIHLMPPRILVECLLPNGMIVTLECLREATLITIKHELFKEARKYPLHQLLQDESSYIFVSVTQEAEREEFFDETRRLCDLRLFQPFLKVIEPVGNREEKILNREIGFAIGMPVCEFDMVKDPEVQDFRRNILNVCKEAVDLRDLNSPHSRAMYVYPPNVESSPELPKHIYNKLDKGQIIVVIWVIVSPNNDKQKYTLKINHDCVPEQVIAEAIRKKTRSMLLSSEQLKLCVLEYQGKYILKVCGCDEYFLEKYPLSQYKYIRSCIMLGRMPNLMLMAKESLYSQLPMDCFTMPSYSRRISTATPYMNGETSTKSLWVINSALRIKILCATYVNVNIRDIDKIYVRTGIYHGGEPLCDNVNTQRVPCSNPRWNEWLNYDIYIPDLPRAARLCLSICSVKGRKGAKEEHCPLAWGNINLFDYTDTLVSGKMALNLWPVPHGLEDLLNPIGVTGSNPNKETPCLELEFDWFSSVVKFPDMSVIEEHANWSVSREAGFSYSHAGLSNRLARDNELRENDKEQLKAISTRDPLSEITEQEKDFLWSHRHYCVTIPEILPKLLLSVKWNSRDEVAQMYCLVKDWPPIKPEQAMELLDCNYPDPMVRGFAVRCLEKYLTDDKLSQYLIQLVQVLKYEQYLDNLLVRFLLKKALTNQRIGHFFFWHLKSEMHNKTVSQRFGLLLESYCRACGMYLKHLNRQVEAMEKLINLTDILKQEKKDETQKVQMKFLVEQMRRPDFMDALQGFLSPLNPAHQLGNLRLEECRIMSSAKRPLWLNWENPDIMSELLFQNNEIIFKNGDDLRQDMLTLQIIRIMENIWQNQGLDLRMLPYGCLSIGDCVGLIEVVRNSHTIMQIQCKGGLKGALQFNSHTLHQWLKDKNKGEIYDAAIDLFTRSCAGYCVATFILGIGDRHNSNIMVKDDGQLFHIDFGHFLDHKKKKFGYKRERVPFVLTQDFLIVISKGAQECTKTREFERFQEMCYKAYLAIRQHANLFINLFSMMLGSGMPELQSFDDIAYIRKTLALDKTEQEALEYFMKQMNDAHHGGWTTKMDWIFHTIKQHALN
Sequence of Class I PI3K alpha isoform (P27986 whole entry partner, canonical isoform): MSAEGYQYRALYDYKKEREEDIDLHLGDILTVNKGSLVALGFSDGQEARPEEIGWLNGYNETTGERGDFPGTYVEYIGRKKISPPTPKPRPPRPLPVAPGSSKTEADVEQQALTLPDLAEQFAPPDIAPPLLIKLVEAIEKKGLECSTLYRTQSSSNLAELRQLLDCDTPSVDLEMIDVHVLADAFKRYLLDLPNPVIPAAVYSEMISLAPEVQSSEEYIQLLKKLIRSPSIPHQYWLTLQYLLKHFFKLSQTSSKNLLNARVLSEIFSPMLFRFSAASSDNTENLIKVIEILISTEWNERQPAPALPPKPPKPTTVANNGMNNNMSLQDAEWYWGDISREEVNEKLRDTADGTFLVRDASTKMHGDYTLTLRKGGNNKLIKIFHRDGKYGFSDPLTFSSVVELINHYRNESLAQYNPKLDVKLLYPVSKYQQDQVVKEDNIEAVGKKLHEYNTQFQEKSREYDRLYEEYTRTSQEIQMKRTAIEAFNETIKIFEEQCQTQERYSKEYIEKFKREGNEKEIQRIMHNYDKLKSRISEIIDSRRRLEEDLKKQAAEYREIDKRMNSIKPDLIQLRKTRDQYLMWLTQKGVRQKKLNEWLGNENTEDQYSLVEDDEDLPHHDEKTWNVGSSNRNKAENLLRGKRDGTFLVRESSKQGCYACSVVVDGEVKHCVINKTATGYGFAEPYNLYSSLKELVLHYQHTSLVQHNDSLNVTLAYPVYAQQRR

[9] = system: tumor cells bearing mutant PI3K; conditions: cited from earlier work
[10] = system: MCF-7 (PIK3CA mutant E545K, ER+) breast carcinoma xenograft; assay: MCF-7 xenograft efficacy; conditions: for % TGI: G 25 mg/kg oral QD 21 days, P 50 mg/kg oral QD 21 days, F 200 mg/kg s.c. weekly 3 weeks, groups of 12 animals; for CR / PR: number of animals, groups of 12, doses as for % TGI
Procedure: Implant 0.36 mg estradiol pellets, s.c. between the scapulae, 1-3 days prior to cell implantation.
Set up CR female NCr nu/nu mice with 1×10^7 MCF7 tumor cells in 0% Matrigel sc in mammary fat pad.
Perform a pair match when tumors reach an average size of 180-220 mm^3, and begin treatment.
Caliper Measurement: biwk to end
Endpoint TGD. Animals are monitored individually. The endpoint of the experiment is a tumor volume of 2000 mm^3 or 45 days, whichever comes first. Responders can be followed longer. When the endpoint is reached, the animals are euthanized per SOP.

[11] = cited from earlier work
[12] = 19 patients with measurable disease
[13] = in combination with fulvestrant

SMILES: C[C@H](Nc1ccc2c(c1)OCCn1cc(N3C(=O)OC[C@H]3C(F)F)nc1-2)C(N)=O [GDC-0077, (S)-2-((2-((S)-4-(difluoromethyl)-2-oxooxazolidin-3-yl)-5,6-dihydrobenzo[f]imidazo[1,2-d][1,4]oxazepin-9-yl)amino)propanamide]
PK variability (% CV) for Cmax and AUC0-24 ([1]; after a single dose and at steady state at MTD (9 mg)): ~20%
half-life ([1]; human, plasma, oral, following a single dose, read-out: Mean half-life (t1/2) (converted)): 18.1 h
Plasma exposure versus dose ([1]; single and multiple doses): increased proportionally
best overall response rate [2, 12]: 26%
confirmed overall response rate [2, 12]: 21%
clinical benefit rate ([2]; 20 patients): 45%
clinical benefit ([2]; of 20 patients): 9 patients
best overall response rate ([2]; overall, 20 patients): 25%
confirmed PR ([2]; overall, 20 patients): 4 patients
confirmed overall response rate ([2]; overall, 20 patients): 20%
partial response (PR) ([2]; overall, 20 patients): 5 patients
overall response rate ([2]; patients with tumors harboring PIK3CA mutations (conclusions)): 210%
FDG-PET scans (PI3K pathway [3]; baseline and after 2 weeks of daily GDC-0077): metabolic responses at all dose levels evaluated
PI3K pathway activity in paired tumor biopsies by IHC for phosphoproteins (PI3K pathway [3]; in vivo): Decreased
ctDNA PIK3CA mutant allele frequency (PI3K pathway [3]; over time, majority of specimens): Decreased
plasma exposure of GDC-0077, single agent versus combination arms ([4]; Preliminary results): similar
drug-drug interaction with concomitant medications (palbociclib and letrozole) ([4]; in vivo): no drug-drug interaction
PI3K pathway effectors (pAKT, pS6) in paired tumor biopsies (PI3K pathway [5]; GDC-0077 with letrozole with or without palbociclib): Robust PD downregulation
PIK3CA mutant allele frequency by ctDNA (PI3K pathway [5]; between Cycle 1 Day 1 and Cycle 1 Day 15, majority of available samples): decreased
PK of GDC-0077 in combination with fulvestrant versus single-agent PK ([6]; in vivo): similar
GDC-0077 exposures (Cmax and AUC0-24) in fasted or fed states ([6]; standard high-fat meal, single dose and steady state): Comparable
drug-drug interactions with concomitant therapies (palbociclib and fulvestrant [and metformin]) [7]: no drug-drug interactions
pharmacokinetics of inavolisib in combination with palbociclib+fulvestrant versus single-agent inavolisib [7]: similar
colitis (9 patients treated ≥5 months): No colitis
MTD (QD, single agent): 9 mg
Dose-limiting toxicities (at 12 mg (1 Grade 4 hyperglycemia, 1 Grade 3 fatigue)): 2 patients
treatment related high-grade gastrointestinal toxicities (treatment-related diarrhea events all Grade 1-2): No treatment related high-grade gastrointestinal toxicities
fold less potent biochemical inhibition for other Class I PI3K beta, delta, and gamma isoforms [8]: > 300 fold
potency in tumor cells bearing mutant PI3K over wild type (WT) PI3K cells [9]: increased potency
% TGI [10]: 35%
CR [10]: 0
PR [10]: 0

SMILES: C[C@]12CC[C@@H]3c4ccc(O)cc4C[C@@H](CCCCCCCCC[S+]([O-])CCCC(F)(F)C(F)(F)F)[C@H]3[C@@H]1CC[C@@H]2O (stereo partly drawn) [fulvestrant, (7α,17β)-7-{9-[(4,4,5,5,5-pentafluoropentyl)sulfinyl]nonyl}estra-1,3,5(10)-triene-3,17-diol]
% TGI [10]: 52%
CR [10]: 0
PR [10]: 0

pharmacokinetics in combination with GDC-0077 versus single-agent PK reported in literature ([4]; in vivo): comparable
SMILES: N#Cc1ccc(C(c2ccc(C#N)cc2)n2cncn2)cc1 [letrozole, 4,4′-((1H-1,2,4-triazol-1-yl)methylene)dibenzonitrile, reference compound]

pharmacokinetics in combination with GDC-0077 versus single-agent PK reported in literature ([4]; in vivo): comparable
SMILES: CC(=O)c1c(C)c2cnc(Nc3ccc(N4CCNCC4)cn3)nc2n(C2CCCC2)c1=O [palbociclib, 6-acetyl-8-cyclopentyl-5-methyl-2-(5-(piperazin-1-yl)pyridin-2-ylamino)pyrido[2,3-d]pyrimidin-7(8H)-one]
cycle delays [11, 13]: 36%
dose holds [11, 13]: 54%
patients required ≥1 dose reduction of palbociclib [11, 13]: 34%
cycle delays ([11]; in combination with letrozole): 68%
dose holds ([11]; in combination with letrozole): 70%
patients required ≥1 dose reduction of palbociclib ([11]; in combination with letrozole): 36%
% TGI [10]: 45%
CR [10]: 0
PR [10]: 0
